Test results published in ChEMBL document CHEMBL5523684, “Development of a tetrahydroindazolone-based HDAC6 inhibitor with in-vivo anti-arthritic activity” (Bioorg Med Chem, 2024).
pIC50: −log10 of the molar value. Active and inactive are the calls of the source. The calls are words filed in the database; no cut-off is given here.

How the values were obtained:
Histone deacetylase 3 = Histone deacetylase 3 (Homo sapiens, UniProt O15379)
Histone deacetylase 8 = target: T1, Histone deacetylase 8 (Homo sapiens, UniProt Q9BY41); experiment: Inhibition of human recombinant HDAC8 using fluorescent peptide p53 (379 to 382 residues) (RHK(Ac)K(Ac)) as substrate by fluorescence based analysis
T1 sequence (Q9BY41 whole entry): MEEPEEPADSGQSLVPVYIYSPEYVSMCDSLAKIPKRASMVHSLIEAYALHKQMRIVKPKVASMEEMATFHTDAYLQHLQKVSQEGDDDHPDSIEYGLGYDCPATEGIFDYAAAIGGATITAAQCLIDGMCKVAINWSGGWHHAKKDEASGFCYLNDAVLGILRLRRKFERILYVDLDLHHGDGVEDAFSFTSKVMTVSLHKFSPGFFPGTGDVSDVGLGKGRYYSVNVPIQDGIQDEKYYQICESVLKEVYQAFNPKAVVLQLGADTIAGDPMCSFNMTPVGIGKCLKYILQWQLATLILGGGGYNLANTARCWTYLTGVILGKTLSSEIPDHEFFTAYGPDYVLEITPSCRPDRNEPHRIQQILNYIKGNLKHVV

[1] = AUC (0 to infinity) in monkey at 0.5 mg/kg, iv; format: ADME, organism-based, Macaca mulatta; conditions: rhesus monkey, in vivo
Histone deacetylase 11 = target: T2, Histone deacetylase 11 (Homo sapiens, UniProt Q96DB2); experiment: Inhibition of human recombinant HDAC11 using fluorescent peptide p53 (379 to 382 residues) RHKK(Ac) as substrate by fluorescence based analysis
T2 sequence (Q96DB2 whole entry): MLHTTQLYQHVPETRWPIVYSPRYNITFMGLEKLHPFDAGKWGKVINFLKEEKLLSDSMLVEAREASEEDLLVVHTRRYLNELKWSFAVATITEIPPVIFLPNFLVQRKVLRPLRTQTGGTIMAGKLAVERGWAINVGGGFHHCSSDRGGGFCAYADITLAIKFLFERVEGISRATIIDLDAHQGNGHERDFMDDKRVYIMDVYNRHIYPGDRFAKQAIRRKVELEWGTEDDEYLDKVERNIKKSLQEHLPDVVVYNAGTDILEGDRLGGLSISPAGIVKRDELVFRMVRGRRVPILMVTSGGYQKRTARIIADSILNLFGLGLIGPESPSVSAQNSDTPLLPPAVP

Mus musculus = experiment: Antiarthritic activity against collagen-induced arthritis DBA1J mouse model at 15 to 30 mg/kg, sc measured after 21 days; format: functional, organism-based; conditions: dose lower […], dose upper 30.0 mg/kg, time 21.0 day
Histone deacetylase 2 = Histone deacetylase 2 (Homo sapiens, UniProt Q92769); experiment: Inhibition of human recombinant HDAC2 using fluorescent peptide p53 (379 to 382 residues) RHKK(Ac) as substrate by fluorescence based analysis
Sequence of Histone deacetylase 2 (Q92769 whole entry, the tested form may be a part): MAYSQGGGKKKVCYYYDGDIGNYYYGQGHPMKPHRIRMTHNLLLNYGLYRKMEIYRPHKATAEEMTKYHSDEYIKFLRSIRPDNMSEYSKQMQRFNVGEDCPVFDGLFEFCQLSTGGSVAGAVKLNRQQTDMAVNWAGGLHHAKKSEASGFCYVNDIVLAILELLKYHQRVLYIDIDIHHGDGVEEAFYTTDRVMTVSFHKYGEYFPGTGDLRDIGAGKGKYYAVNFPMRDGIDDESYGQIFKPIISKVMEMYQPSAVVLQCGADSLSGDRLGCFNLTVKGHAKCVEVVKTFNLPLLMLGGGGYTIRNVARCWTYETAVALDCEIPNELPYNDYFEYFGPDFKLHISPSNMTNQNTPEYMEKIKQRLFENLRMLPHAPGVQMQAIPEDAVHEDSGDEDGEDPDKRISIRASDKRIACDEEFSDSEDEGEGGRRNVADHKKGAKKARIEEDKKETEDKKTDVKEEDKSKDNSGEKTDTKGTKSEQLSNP

Homo sapiens = organism: Homo sapiens; experiment: Selectivity index, ratio of IC50 for inhibition of his-tagged human recombinant HDAC1 using fluor de lys-SIRT1 as substrate to IC50 for inhibition of N-terminal GST-tagged human recombinant HDAC6 expressed in Spodoptera frugiperda
[2] = target: T3, Polyamine deacetylase HDAC10 (Homo sapiens, UniProt Q969S8); experiment: Inhibition of human recombinant HDAC10 using fluorescent peptide p53 (379 to 382 residues) RHKK(Ac) as substrate by fluorescence based analysis
T3 sequence (Q969S8 whole entry): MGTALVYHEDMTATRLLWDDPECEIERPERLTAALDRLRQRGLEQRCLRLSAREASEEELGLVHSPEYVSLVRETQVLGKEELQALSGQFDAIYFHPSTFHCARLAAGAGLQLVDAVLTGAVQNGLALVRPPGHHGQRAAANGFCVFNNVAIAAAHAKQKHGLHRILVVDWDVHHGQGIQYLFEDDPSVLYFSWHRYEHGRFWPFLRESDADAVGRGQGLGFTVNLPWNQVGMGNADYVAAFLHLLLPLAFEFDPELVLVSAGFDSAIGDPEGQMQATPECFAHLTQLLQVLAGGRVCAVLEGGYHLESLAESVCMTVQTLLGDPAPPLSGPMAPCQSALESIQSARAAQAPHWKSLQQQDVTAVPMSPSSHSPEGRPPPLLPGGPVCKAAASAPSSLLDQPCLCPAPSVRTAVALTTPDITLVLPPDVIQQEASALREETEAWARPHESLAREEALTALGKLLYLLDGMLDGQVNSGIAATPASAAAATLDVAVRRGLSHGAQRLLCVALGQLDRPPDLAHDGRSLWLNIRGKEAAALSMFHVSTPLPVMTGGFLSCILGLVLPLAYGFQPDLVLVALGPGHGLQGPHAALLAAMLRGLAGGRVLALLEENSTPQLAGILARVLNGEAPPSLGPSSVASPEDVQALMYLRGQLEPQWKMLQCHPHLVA

Histone deacetylase 1 = Histone deacetylase 1 (Homo sapiens, UniProt Q13547); experiment: Inhibition of human recombinant HDAC1 using fluorescent peptide p53 (379 to 382 residues) RHKK(Ac) as substrate by fluorescence based analysis
Sequence of Histone deacetylase 1 (Q13547 whole entry, the tested form may be a part): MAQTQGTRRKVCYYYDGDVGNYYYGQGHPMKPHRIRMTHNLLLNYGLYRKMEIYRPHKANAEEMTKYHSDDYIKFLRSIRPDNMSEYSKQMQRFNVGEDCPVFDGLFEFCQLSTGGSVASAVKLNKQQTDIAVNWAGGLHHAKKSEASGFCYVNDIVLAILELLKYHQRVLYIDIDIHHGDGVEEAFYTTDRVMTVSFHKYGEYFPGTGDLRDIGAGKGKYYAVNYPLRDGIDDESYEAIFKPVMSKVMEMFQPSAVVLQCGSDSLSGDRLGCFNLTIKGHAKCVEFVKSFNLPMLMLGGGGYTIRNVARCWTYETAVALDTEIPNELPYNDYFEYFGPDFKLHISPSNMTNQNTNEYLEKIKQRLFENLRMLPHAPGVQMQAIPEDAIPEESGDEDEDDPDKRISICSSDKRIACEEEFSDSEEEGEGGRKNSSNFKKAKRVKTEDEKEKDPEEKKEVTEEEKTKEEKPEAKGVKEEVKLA

Histone deacetylase 7 = target: T4, Histone deacetylase 7 (Homo sapiens, UniProt Q8WUI4); experiment: Inhibition of human recombinant HDAC7 using Boc-Lys(tri-fluoroacetyl)-AMC as substrate by fluorescence based analysis
T4 sequence (Q8WUI4 whole entry): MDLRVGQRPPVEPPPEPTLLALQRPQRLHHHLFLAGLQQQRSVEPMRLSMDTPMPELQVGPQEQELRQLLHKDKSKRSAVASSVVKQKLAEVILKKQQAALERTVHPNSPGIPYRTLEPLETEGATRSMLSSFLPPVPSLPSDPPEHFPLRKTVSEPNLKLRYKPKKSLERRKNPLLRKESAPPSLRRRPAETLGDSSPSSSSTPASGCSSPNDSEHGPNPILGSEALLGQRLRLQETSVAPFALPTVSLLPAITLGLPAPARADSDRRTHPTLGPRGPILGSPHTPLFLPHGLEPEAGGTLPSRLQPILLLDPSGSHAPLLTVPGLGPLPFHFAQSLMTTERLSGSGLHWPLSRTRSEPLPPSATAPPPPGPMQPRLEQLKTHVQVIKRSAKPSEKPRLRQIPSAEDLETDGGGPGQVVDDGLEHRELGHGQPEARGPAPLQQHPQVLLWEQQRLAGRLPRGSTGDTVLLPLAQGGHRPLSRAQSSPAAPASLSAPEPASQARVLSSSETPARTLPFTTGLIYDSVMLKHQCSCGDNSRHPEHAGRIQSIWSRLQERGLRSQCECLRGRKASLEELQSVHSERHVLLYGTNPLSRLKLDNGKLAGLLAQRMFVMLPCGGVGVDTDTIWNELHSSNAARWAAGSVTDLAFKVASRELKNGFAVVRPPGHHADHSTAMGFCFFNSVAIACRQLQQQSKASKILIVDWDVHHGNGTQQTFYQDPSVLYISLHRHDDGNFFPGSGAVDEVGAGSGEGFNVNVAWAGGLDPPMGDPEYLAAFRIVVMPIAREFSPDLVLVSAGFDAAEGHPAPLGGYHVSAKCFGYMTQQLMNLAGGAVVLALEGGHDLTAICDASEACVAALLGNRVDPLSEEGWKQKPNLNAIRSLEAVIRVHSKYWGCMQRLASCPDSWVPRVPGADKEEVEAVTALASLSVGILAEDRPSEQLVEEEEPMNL

Sequence of Histone deacetylase 3 (O15379 whole entry, the tested form may be a part): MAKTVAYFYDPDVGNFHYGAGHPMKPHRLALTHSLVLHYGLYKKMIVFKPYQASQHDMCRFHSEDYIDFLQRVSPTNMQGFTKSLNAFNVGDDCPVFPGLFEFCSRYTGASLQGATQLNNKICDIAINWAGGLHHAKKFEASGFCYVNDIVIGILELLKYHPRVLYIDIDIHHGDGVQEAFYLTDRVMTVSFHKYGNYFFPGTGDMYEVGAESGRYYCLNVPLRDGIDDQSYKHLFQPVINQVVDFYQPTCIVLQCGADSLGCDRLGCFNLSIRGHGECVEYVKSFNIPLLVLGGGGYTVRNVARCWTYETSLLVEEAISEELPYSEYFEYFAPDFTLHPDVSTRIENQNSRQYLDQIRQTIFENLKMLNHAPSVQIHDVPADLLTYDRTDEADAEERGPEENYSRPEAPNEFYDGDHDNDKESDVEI

| Structure (SMILES) | pIC50 (Histone deacetylase 3) | pIC50 (Histone deacetylase 8) | AUC [1] [ng·h/mL] | pIC50 (Histone deacetylase 11) | Activity (Mus musculus) | pIC50 (Histone deacetylase 2) | Ratio IC50 (Homo sapiens) | pIC50 [2] | pIC50 (Histone deacetylase 1) | pIC50 (Histone deacetylase 7) |
| --- | --- | --- | --- | --- | --- | --- | --- | --- | --- | --- |
| CC1(C)CC(=O)c2c(C(F)(F)F)nn(Cc3ccc(C(=O)NO)cc3)c2C1 | < 4.70 | < 4.70 | 302 | < 4.70 | Active | < 4.70 | 217 | < 4.70 | < 4.70 | < 4.70 |
| O=C(NO)c1ccc(Cn2c3c(c4ccccc42)C(=O)CCC3)cc1 | < 4.70 | < 4.70 | – | < 4.70 | – | < 4.70 | 168 | < 4.70 | 4.74 | < 4.70 |
